Test results published in EP2717057A1, “Morphine-6-glucuronide derivatives, immunogens and immunoassay” (Cisbio Bioassays, priority 2012, dated 2014).

Biological target: rabbit anti-M6G polyclonal antibody
Experiment: Cross-reactivity of the competitive M6G-ELISA (M6G-HRP tracer, biotinylated antibody)
Assay type: binding
Settings: for Kd: approximate, calculated from Figure 1, competing compound diluted in NBCS at 1, 10, 100 or 1000 nM, one site competition model, read-out: affinity constant K; for K relative to M6G (X as high as M6G): ratio of the compound's K to the K of M6G
Description: The rabbit anti-M6G polyclonal antibody was biotinylated for the ELISA assay. After dialysis in buffer carbonate 100 mM pH 9, biotin-NHS dissolved in DMF was added to the antibody. After stirring for 30 min, the free biotin was removed by dialysis in PBS 11 mM pH 7.2. Aliquots of labeled antibody were frozen and stored at -20°C. Then, the biotinylated antibody was diluted at ELISA working concentration determined at 0.25µg.mL^-1 in PBS 11 mM pH 7.2 + 1% BSA, aliquoted and stored at -20°C.
96-well microplates were coated with 200 µL/well of a 10 µg.mL^-1 BSA-biotin solution in PBS and incubated for 24 h at room temperature. Then after aspiration 200 µL/well of 10 µg.mL^-1 of avidin solution in PBS were distributed and incubated for 24 h at room temperature. After washing with NaCl, Tween® 0.005%, 200 µL/well of saturation solution was added (PBS + 2% Sorbitol + 0.5% Glycine + 0.1% BSA + 0.065% NaN3) and incubated for 24 h at 4°C. After an aspiration, the microplates were dried at 20°C in a ventilated room for 12 h, packed with a dessicant and stored at 4°C.
A competitive assay format was used for the M6G-ELISA. 100 µL of biotinylated antibody were added and incubated for 2 h at room temperature under 400 rpm stirring. After incubation, the wells were emptied and 3 wash cycles with H2O + 0.05% Tween® were applied. 50 µL of calibrators, controls and samples were added in duplicate. If necessary, samples were prediluted in dilution buffer (PBS + 0.1% BSA), then 50 µL of M6G-HRP conjugate was distributed in all the wells and incubated for 2h at room temperature, under 400rpm stirring. After a final washing step, 100 µL of HRP substrate (TMB) were added, and incubated for 10 min at room temperature, under 400rpm stirring. The chromogenic reaction was stopped with 100 µL H2SO4 1 N, and the absorbance of each sample was determined at 450 nm and 620 nm (reference wavelength). The results were analyzed using GraphPad Prism Software, model one site competition.
The cross-reactivity of the assay described in example 5 with several compounds that are structurally close to M6G was evaluated. For this purpose, the assay was performed with 50 µL of samples constituted of competing compounds diluted in NBCS at the concentrations of: 1 nM, 10 nM, 100 nM or 1000 nM.

In the case of `CN1CC[C@]23c4c5ccc(O[C@@H]6O[C@H](C(=O)O)[C@@H](O)[C@H](O)[C@H]6O)c4O[C@H]2[C@@H](O)C=C[C@H]3[C@H]1C5` [M3G, Morphine-3-glucuronide], the Kd is reported as 670 nM and the “K relative to M6G (X as high as M6G)” value is reported as “more than 100 X”.
With `CN1CC[C@]23c4c5ccc(O[C@@H]6O[C@H](C(=O)O)[C@@H](O)[C@H](O)[C@H]6O)c4O[C@H]2[C@@H](O[C@@H]2O[C@H](C(=O)O)[C@@H](O)[C@H](O)[C@H]2O)C=C[C@H]3[C@H]1C5` [M3,6G, Morphine-3-6-diglucuronide] the Kd was 3.4 nM.
Molecule `Oc1ccc2c3c1O[C@H]1[C@@H](O)C=C[C@H]4[C@@H](C2)NCC[C@@]341` [normorphine, Normorphine] has a Kd greater than 1000 nM.
With `CN1CC[C@]23c4c5ccc(O)c4O[C@H]2[C@@H](O[C@@H]2O[C@H](C(=O)O)[C@@H](O)[C@H](O)[C@H]2O)C=C[C@H]3[C@H]1C5` [M6G, Morphine-6-glucuronide] the Kd was 5.9 nM.
For `COc1ccc2c3c1O[C@H]1[C@@H](O)C=C[C@H]4[C@@H](C2)N(C)CC[C@@]341` [codeine, Codeine], the Kd was 220 nM and the “K relative to M6G (X as high as M6G)” value was 35 X.
`COc1ccc2c3c1O[C@H]1[C@@H](O)C=C[C@H]4[C@@H](C2)NCC[C@@]341` [norcodeine, Norcodeine] gave a Kd greater than 1000 nM.
